Where two headings read alike, the source gives them in different places.
Assays:
Assay in all cases: KinomeScan kinase panel, single concentration 10 µM
Type in all cases: binding
[1] = molecular target: T1, KinomeScan kinase panel (Homo sapiens, UniProt P49841); conditions: GSK3B, 10 µM; read-out: score (%)
T1 construct: purchased DiscoveRx (KinomeScan)

[2] = molecular target: T2, KinomeScan kinase panel (Homo sapiens, UniProt P00519, Y253F); conditions: 10 µM, read-out: score (%)
T2 construct: purchased DiscoveRx (KinomeScan)

[3] = molecular target: T3, KinomeScan kinase panel (Homo sapiens, UniProt Q8N4C8); conditions: MINK, 10 µM; read-out: score (%)
T3 construct: purchased DiscoveRx (KinomeScan)

[4] = molecular target: T4, KinomeScan kinase panel (Homo sapiens, UniProt Q05655); conditions: 10 µM, read-out: score (%)
T4 construct: purchased DiscoveRx (KinomeScan)

[5] = molecular target: T5, KinomeScan kinase panel (Homo sapiens, UniProt P15056, V600E); conditions: BRAF(V600E), 10 µM; read-out: score (%)
T5 construct: purchased DiscoveRx (KinomeScan)

[6] = molecular target: T6, KinomeScan kinase panel (Homo sapiens, UniProt Q86Z02); conditions: HIPK1, 10 µM; read-out: score (%)
T6 construct: purchased DiscoveRx (KinomeScan)

[7] = molecular target: T7, KinomeScan kinase panel (Homo sapiens, UniProt P08922); conditions: read-out: score (%)
T7 construct: purchased DiscoveRx (KinomeScan)

[8] = molecular target: T8, KinomeScan kinase panel (Homo sapiens, UniProt P54756); conditions: EPHA5, 10 µM
T8 construct: purchased DiscoveRx (KinomeScan)

[9] = molecular target: T9, KinomeScan kinase panel (Homo sapiens, UniProt P35590); conditions: read-out: score (%)
T9 construct: purchased DiscoveRx (KinomeScan)

[10] = molecular target: T10, KinomeScan kinase panel (Homo sapiens, UniProt O43353); conditions: read-out: score (%)
T10 construct: purchased DiscoveRx (KinomeScan)

[11] = molecular target: T11, KinomeScan kinase panel (Homo sapiens, UniProt Q9Y4K4); conditions: MAP4K5, 10 µM; read-out: score (%)
T11 construct: purchased DiscoveRx (KinomeScan)

[12] = molecular target: T12, KinomeScan kinase panel (Homo sapiens, UniProt Q8N5S9); conditions: CAMKK1, 10 µM; read-out: score (%)
T12 construct: purchased DiscoveRx (KinomeScan)

[13] = molecular target: T13, KinomeScan kinase panel (Homo sapiens, UniProt Q96L34); conditions: MARK4, 10 µM
T13 construct: purchased DiscoveRx (KinomeScan)
T13 sequence (Q96L34 1-752): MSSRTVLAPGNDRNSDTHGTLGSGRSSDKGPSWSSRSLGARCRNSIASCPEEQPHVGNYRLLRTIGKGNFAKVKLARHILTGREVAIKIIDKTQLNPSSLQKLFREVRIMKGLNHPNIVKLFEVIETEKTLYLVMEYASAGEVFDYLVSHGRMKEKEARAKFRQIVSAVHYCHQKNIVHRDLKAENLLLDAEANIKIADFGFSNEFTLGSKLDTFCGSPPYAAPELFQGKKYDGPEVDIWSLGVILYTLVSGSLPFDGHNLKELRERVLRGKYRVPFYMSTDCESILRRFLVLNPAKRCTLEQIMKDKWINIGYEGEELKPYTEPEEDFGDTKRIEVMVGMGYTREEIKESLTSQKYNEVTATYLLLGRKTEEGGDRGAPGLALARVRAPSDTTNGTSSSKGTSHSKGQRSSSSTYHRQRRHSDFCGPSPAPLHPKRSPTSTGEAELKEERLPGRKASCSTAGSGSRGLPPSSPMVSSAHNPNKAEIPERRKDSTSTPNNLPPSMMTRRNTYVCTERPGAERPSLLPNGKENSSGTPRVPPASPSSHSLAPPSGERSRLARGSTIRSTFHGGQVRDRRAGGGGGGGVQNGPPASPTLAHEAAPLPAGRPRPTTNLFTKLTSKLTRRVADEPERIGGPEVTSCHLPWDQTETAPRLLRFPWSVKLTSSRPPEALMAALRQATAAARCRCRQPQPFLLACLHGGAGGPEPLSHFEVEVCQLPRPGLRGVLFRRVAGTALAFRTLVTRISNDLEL

[14] = molecular target: T14, KinomeScan kinase panel (Homo sapiens, UniProt Q9NRM7); conditions: LATS2, 10 µM
T14 construct: purchased DiscoveRx (KinomeScan)
T14 sequence (Q9NRM7 1-1088): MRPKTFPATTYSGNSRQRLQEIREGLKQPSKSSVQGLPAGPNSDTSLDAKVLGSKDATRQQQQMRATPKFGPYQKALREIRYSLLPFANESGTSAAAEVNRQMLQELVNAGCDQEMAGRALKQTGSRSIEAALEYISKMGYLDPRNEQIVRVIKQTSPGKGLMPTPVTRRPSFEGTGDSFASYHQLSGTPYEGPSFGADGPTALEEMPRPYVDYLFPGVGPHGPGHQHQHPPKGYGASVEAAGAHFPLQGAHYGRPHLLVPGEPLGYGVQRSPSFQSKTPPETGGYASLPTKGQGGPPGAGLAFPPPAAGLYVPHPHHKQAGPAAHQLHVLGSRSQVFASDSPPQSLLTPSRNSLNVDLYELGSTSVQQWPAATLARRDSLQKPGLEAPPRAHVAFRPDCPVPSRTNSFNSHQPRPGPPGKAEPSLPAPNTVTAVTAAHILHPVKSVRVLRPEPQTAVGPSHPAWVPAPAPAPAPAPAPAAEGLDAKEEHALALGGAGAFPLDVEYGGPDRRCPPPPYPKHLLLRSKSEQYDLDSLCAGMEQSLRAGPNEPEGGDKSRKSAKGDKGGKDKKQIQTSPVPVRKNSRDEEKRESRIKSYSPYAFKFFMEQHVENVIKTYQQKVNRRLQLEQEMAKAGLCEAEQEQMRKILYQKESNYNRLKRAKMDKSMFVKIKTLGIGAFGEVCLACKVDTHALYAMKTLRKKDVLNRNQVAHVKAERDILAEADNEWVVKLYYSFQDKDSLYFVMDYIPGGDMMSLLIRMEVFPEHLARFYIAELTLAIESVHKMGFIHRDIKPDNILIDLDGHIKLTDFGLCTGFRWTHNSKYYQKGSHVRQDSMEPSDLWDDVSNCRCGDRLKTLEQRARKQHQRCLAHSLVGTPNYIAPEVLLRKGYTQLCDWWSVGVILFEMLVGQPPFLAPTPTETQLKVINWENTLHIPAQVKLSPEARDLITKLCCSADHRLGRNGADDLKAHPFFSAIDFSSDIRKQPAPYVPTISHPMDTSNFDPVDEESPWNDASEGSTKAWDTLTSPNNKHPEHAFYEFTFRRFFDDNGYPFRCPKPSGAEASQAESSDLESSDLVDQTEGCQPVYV

[15] = molecular target: T15, KinomeScan kinase panel (Homo sapiens, UniProt P22607, G697C); conditions: FGFR3(G697C), 10 µM; read-out: score (%)
T15 construct: purchased DiscoveRx (KinomeScan)

T5 sequence (P15056 whole entry V600E): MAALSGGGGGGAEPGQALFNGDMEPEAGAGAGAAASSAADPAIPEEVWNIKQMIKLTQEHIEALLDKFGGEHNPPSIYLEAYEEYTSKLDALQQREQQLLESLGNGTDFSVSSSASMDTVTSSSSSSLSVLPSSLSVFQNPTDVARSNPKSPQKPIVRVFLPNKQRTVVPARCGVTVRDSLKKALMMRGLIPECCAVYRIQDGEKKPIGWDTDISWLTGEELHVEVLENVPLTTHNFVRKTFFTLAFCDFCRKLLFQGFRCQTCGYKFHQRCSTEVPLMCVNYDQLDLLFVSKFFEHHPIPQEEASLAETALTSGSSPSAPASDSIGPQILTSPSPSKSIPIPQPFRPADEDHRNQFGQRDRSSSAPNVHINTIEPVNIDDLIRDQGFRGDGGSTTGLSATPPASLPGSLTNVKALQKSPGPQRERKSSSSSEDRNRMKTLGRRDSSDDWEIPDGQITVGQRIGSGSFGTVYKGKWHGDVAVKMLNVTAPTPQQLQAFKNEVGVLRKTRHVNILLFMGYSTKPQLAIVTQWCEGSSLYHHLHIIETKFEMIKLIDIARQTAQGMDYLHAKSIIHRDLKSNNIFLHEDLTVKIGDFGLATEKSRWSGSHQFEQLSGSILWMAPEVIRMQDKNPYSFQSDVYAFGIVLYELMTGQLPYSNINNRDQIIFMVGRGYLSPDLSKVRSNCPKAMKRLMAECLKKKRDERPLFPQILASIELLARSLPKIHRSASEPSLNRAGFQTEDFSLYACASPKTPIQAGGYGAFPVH
T9 sequence (P35590 22-1138): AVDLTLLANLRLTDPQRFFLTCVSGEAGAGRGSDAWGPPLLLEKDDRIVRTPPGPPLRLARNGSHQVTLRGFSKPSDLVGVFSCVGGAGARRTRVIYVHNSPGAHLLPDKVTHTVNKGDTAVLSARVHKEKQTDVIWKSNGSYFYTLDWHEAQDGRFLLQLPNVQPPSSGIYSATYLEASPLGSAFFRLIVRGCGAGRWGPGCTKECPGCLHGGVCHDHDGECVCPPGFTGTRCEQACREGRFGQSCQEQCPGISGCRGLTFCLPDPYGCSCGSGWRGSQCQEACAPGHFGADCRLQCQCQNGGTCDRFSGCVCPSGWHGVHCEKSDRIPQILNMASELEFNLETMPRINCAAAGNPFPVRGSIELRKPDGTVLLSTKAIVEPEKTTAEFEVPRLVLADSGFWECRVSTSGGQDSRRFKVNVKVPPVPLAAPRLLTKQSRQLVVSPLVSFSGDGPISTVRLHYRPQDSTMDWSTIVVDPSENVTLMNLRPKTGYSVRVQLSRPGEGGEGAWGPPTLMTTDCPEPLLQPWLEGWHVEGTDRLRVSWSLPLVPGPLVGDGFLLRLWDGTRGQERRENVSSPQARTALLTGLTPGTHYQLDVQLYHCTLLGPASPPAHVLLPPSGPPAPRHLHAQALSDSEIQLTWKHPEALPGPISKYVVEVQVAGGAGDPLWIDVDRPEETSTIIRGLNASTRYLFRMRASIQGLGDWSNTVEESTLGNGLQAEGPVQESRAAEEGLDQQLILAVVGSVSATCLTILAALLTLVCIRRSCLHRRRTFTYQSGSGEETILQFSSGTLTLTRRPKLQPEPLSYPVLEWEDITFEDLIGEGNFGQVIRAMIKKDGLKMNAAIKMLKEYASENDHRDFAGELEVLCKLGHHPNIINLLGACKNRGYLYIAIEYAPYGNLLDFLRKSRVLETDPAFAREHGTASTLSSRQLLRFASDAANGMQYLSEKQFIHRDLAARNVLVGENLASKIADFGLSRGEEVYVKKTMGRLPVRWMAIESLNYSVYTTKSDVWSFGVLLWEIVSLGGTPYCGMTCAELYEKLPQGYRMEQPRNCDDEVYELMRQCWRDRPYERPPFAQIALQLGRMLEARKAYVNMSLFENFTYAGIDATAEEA
T4 sequence (Q05655 whole entry): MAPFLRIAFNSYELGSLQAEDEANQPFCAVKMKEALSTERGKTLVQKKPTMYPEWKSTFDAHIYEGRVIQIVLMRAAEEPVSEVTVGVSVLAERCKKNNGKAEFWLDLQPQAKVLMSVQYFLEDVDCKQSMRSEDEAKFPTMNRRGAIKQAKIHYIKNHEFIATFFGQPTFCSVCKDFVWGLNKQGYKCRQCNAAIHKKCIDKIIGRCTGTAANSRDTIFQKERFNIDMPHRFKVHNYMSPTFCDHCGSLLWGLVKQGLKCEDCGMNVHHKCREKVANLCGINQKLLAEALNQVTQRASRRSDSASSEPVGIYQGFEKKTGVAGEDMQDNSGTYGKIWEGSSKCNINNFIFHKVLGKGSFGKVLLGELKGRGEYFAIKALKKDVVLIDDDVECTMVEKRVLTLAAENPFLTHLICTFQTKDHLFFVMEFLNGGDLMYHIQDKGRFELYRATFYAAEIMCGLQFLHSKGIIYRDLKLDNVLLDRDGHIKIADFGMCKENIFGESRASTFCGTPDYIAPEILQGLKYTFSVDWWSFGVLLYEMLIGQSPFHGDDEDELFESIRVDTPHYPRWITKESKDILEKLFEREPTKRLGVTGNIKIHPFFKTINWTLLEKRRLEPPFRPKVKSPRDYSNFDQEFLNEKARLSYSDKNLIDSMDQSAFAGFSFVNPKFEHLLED
T11 sequence (Q9Y4K4 whole entry): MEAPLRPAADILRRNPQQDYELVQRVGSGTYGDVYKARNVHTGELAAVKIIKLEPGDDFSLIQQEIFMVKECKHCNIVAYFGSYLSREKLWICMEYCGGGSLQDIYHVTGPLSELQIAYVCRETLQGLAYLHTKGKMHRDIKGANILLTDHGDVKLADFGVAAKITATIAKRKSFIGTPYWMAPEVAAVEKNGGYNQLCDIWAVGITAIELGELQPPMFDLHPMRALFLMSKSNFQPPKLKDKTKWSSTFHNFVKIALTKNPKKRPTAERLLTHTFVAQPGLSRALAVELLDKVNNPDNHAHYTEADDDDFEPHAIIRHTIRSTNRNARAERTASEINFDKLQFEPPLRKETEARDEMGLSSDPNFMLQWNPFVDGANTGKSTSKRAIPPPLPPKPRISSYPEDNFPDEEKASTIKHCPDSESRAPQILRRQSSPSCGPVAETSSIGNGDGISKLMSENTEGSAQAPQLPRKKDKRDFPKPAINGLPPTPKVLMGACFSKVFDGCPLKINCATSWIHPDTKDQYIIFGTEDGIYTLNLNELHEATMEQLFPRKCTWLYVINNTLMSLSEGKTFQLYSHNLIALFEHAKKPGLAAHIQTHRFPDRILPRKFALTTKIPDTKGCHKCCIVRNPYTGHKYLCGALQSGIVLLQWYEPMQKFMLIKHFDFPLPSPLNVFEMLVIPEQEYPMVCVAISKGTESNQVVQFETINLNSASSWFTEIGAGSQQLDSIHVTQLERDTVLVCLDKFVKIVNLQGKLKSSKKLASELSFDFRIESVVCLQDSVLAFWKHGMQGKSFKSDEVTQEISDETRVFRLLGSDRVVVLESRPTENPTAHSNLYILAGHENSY
T6 sequence (Q86Z02 whole entry): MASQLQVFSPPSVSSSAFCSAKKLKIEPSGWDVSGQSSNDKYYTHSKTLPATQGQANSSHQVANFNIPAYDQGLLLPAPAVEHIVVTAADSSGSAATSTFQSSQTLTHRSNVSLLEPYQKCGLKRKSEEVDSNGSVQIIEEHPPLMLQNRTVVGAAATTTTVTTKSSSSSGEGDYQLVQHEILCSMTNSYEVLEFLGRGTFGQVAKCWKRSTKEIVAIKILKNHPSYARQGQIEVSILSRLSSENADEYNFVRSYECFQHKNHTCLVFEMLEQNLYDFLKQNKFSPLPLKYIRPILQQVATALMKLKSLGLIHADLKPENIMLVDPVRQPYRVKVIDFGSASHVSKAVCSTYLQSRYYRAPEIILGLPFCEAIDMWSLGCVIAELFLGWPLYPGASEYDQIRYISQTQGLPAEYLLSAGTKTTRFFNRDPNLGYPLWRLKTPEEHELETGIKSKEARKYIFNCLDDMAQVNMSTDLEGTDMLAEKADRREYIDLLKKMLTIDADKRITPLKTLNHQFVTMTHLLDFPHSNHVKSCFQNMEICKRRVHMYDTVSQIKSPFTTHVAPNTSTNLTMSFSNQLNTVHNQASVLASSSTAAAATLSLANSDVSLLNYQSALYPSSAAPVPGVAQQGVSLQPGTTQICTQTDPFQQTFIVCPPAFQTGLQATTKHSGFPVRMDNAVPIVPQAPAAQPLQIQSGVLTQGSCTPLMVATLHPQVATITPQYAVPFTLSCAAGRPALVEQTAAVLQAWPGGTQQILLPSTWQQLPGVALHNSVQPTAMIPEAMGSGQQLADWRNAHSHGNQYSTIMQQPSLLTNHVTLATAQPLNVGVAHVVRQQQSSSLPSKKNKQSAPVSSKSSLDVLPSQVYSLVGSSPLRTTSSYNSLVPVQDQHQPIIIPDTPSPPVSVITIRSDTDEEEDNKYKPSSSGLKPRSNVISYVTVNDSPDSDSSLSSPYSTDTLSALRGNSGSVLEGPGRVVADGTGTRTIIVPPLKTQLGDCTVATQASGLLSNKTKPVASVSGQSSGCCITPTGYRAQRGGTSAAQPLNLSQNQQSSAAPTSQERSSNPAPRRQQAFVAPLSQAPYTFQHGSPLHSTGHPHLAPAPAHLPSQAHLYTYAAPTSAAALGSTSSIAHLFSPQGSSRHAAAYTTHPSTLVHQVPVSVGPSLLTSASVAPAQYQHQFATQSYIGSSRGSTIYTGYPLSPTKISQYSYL
T1 sequence (P49841 whole entry): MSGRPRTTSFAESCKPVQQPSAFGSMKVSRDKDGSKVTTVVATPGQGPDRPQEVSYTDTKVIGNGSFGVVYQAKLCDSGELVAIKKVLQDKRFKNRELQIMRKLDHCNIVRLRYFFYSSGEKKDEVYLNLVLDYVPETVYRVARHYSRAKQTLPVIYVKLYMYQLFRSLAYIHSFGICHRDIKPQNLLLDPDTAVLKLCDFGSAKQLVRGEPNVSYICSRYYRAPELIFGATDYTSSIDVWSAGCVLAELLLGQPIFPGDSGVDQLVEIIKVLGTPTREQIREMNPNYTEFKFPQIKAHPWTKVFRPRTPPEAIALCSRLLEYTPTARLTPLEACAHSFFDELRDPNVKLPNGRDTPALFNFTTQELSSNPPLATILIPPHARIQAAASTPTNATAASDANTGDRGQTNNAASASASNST

| remaining binding at 10 µM ([9]; TIE1, 10 µM) | SMILES | remaining binding at 10 µM [1] | remaining binding at 10 µM ([2]; ABL1(Y253F)) | remaining binding at 10 µM [3] | remaining binding at 10 µM ([4]; PRKCD) | remaining binding at 10 µM [5] | remaining binding at 10 µM [6] | remaining binding at 10 µM ([7]; ROS1, 10 µM) | score (%) [8] | remaining binding at 10 µM ([9]; kinase TIE1, 10 µM) | remaining binding at 10 µM ([10]; RIPK2, 10 µM) | remaining binding at 10 µM [11] | remaining binding at 10 µM [12] | score (%) [13] | score (%) [14] | remaining binding at 10 µM [15] | remaining binding at 10 µM ([2]; ABL1(Y253F)-phosphorylated) | remaining binding at 10 µM ([4]; kinase PRKCD) | remaining binding at 10 µM ([7]; kinase ROS1, 10 µM) | remaining binding at 10 µM ([10]; kinase RIPK2, 10 µM) |
| --- | --- | --- | --- | --- | --- | --- | --- | --- | --- | --- | --- | --- | --- | --- | --- | --- | --- | --- | --- | --- |
|  | CCN1CCN(Cc2ccc(NC(=O)c3ccc(C)c(NC(=O)c4cncc(-c5cccs5)c4)c3)cc2C(F)(F)F)CC1 [ALW-II-41-27] | > 30% | 0.2% | 0.65% | 1.2% | 0.55% | > 30% | > 30% | 0.25% | 1.4% | 3.1% | 0.75% | 33% | nb (Hits values higher than 30% were considered negative (no binding: nb)) | nb (Hits values higher than 30% were considered negative (no binding: nb)) | > 30% |  |  |  |  |
| 1.2% | CCN1CCN(Cc2ccc(NC(=O)c3ccc(C)c(/C=C/c4cnc5[nH]ccc5c4Cl)c3)cc2C(F)(F)F)CC1 [HG-6-63-01, (E)-3-(2-(4-chloro-1H-pyrrolo[2,3-b]pyridin-5-yl)vinyl)-N-(4-((4-ethylpiperazin-1-yl)methyl)-3-(trifluoromethyl)phenyl)-4-methylbenzamide] | > 30% | 0.1% | 4.2% | > 30% | 0.2% | > 30% | > 30% | 3.3% |  | 1.6% | 1.8% | > 30% | 25% | nb (Hits values higher than 30% were considered negative (no binding: nb)) | 2.4% |  |  |  |  |
|  | CCN1CCN(Cc2ccc(NC(=O)c3ccc(C)c(C#Cc4cccnc4)c3)cc2C(F)(F)F)CC1 [XMD15-44] | > 30% |  | 2.5% |  | 0.05% | > 30% |  | 1.2% | 1.6% |  | 3% | > 30% | nb (Hits values higher than 30% were considered negative (no binding: nb)) | 7.6% | 0.05% | 0.15% | 39% | 46% | 0.45% |

Reference: publication PMC4457528, “Identification of Novel Small Molecule Inhibitors of Oncogenic RET Kinase” (PLoS ONE, 2015)
